According to article PMC4831050 (Journal of natural products, 2016):
In brackets after ≈: the same amount, converted by molar mass.

What was measured:
[1] = Stability in solution; type: physicochemical; conditions: room temperature
[2] = In vitro cytotoxicity, sulforhodamine B; type: cell-based; conditions: human
[3] = test system: L. donovani promastigotes; test: In vitro killing of L. donovani promastigotes; type: cell-based, Leishmania donovani (strain LV 82); conditions: Leishmania donovani, 72 h, read-out: L. donovani promastigotes IC50
[4] = test system: human farnesyl diphosphate synthase (FPPS); conditions: cited from earlier work
[5] = test system: trypanosomal farnesyl diphosphate synthase (FPPS); conditions: cited from earlier work
[6] = test system: L. donovani promastigotes; conditions: isolated from other plant species; cited from earlier work
[7] = cited from earlier work
[8] = HT-29 colorectal carcinoma cells

SMILES	IC50 at 72 h [2, 8] [µg/mL]	IC50 [3] [µg/mL]	further results
Cc1ccc2c3c1CCCC(C)(C)C3C(=O)C(C(C)C)=C2 (racemic) [Compound 4, (±)-11-dehydroxymicrostegiol]			stability in solution [1]: stable in solution at room temperature
COCC(=O)[C@H]1C(C)(C)CCC[C@]1(C)C1=C(O)C(=O)C(C(C)C)=CC1=O [Compound 2, (1′S,2′S)-6-hydroxy-4-isopropyl-2′-(2-methoxyacetyl)-1′,3′,3′-trimethyl-[1,1′-bi(cyclohexane)]-3,6-diene-2,5-dione]	1.6 (≈ 4.41 µM)	2.5 (≈ 6.9 µM)	
CC(C)C1=CC2=CC(=O)[C@H]3C(C)(C)CCC[C@]3(C)C2=C(O)C1=O [Compound 10, taxodione]	0.8 (≈ 2.54 µM)	0.5 (≈ 1.59 µM)	inhibition of human farnesyl diphosphate synthase (FPPS) [4]: inhibitor; inhibition of trypanosomal farnesyl diphosphate synthase (FPPS) [5]: inhibitor; antileishmanial activity against L. donovani promastigotes in vitro [6]: potent antileishmanial agent
CC(C)c1cc2c(cc1O)[C@@]1(C)CCCC(C)(C)[C@@H]1CC2 [Compound 12, ferruginol]	11.3 (≈ 39.4 µM)	13.1 (≈ 45.7 µM)	reported antioxidant and gastroprotective activity [7]: bioavailable antioxidant and gastroprotective agent
CC(C)c1cc2c(cc1O)[C@@]1(C)CCCC(C)(C)[C@@H]1[C@@H](O)C2=O [Compound 14, 6α-hydroxysugiol]	11.4 (≈ 36 µM)	7.8 (≈ 24.6 µM)	
CC(C)c1cc2c(c(O)c1O)[C@@]1(C)CCCC(C)(C)C1=C(O)C2=O [Compound 16, 14-deoxycoleon U]		> 20	IC50 at 72 h [2]: 4.4 µg/mL (≈ 13.3 µM)
